The test system of assay [1] is PBMCs from control subjects without AMD. As to the method: (§1) Accordingly, peripheral blood mononuclear cells of AMD patients were tested to determine whether they would manifest the same type of responses to various synthetic peptides as blood cells from uveitis patients did in an earlier study. See deSmet et al. (2001) Investigative Ophthalmology & Visual Science 42(13):3233-38.
(§2) The cell preparation and assay procedures used in these experiments were essentially as described in DeSmet et al. 2001. In brief, mononuclear lymphocytes were separated on isolymph gradient (Gallard-Schlesinger, Carle Place, N.Y.) from heparinized blood shortly after the sample was obtained. Cells were resuspended in RMPI 1640 with HEPES (Gibco, Grand Island, N.Y.), supplemented with glutamine (2 mM), Penicillin (100 U/ml), streptomycin (100 μg/ml), and 10% commercial heat-inactivated human AB serum (Biocell Laboratories, Carson, Calif.). These cells were immediately placed in culture at a density of 5×10^5 cells/well in the presence of a test peptide at a concentration of 20 μg/ml (or no peptide control), in flat-bottomed, 96-well plates (Costar, Cambridge, Mass.). All assays were plated in triplicate. Peptides were tested simultaneously. For control of immune reactivity, purified protein derivative (PPD; Parke-Davis, Morris Plains, N.J.) and purified phytohemagglutinin (PHA; Murex Diagnostics, Dartford, UK) were also tested. For the last 12 hours before harvesting at day 5, each well was pulsed with [3H]thymidine (2 Ci/mmol, 0.5 μCi per 10 μl/well; New England Nuclear, Boston, Mass.).

Assay [2] concerns peripheral blood mononuclear cells (PBMCs) from AMD patients. As to conditions: for immunostimulatory activity on PBMCs: peptide 20 μg/ml. As to the method:
as §1, §2

Assay [3] deals with blood cells from uveitis patients. As to conditions: previously found (Wildner and Thurau 1994; Thurau et al. 1997); cited from earlier work.
Where [4] appears, read: AMD patients with large drusen (late stage).
Setting [5] is: early stage AMD patients with small drusen.
Setting [6] is: patients with wet AMD (advanced AMD with CNV), day 5.

Read-outs that look alike come from different tables or passages of the source.

As to GEPIPVTVDVTNNTEKTVKK, the “response from responder T-cells” value in assay [1] (healthy individuals) is recorded as “does not elicit a response”; in assay [2] (AMD patients, FIG. 1), “elicits a response”.

Take DTNLA SSTII KEGID [Peptide 31]: the figures for the “immunostimulatory activity on PBMCs” value in assay [2] (setting [4]) and in assay [2] (setting [5]) were “higher average reactivity than Peptide 23” and “most reactive”, respectively.

As for “FLGEL TSSEV ATEV [PDS-Ag, reference compound]”, the “immunostimulatory activity on PBMCs” value in assay [2] (setting [4]) is “varying levels of responses”; in assay [2] (setting [6]), “elicit immunoreactive responses”. The “immunostimulatory in uveitis patients” value in assay [3] was “immunostimulatory”.

Take LPLLA NNRER RGIAL [Peptide 29]: the “immunostimulatory activity on PBMCs” value is listed as “higher average reactivity than Peptide 23” in assay [2] (setting [4]) and “most reactive” in assay [2] (setting [5]).

In the case of VTVDVTNNTEKTVKK [Peptide 23], the “immunostimulatory activity on PBMCs” value in assay [1] (control subjects without AMD, peptide 20 μg/ml) is recorded as “little if any stimulation”. Besides, the “frequency of induced immunostimulatory response” value in assay [2] (AMD patients with large drusen, FIG. 3, comparison of the three agents) is on record as “more frequently induced an immunostimulatory response than PDS-Ag or B27PD”.

For the substance “ALNED LSSWT AADT [Peptide B27PD, reference compound]”, the “immunostimulatory activity on PBMCs” value in assay [2] (setting [4]) was “varying levels of responses”; in assay [2] (setting [6]) it was “elicit immunoreactive responses”. For the same substance, in assay [3], the “immunostimulatory in uveitis patients” value was “immunostimulatory”.

(Values after patent publication US11173195B2, “Immunomodulatory pharmaceutical compositions including a synthetic peptide and transforming growth factor beta” (Enzo Biochem, Inc., priority 2013, dated 2021).)
